T1: α-NAGA mutant (SEQ ID NO:8) (Homo sapiens, UniProt P17050, A191L/S188E)
T1 sequence (P17050 with tags, fused parts or gaps S188E/A191L): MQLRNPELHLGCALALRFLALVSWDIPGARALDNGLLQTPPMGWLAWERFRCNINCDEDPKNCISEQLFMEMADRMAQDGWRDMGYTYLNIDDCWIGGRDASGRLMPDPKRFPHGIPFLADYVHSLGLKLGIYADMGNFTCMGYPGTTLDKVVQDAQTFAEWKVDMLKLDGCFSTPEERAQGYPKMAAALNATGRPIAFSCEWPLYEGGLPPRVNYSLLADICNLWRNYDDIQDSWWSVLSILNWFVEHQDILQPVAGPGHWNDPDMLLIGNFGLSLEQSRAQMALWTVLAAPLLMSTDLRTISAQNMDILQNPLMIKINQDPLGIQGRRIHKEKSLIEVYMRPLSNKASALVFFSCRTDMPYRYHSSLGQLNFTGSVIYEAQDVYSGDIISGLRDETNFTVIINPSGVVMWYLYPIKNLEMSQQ

T2: α-NAGA mutant (Homo sapiens, UniProt P17050, A191L/S188E)
T2 sequence (P17050 with tags, fused parts or gaps S188E/A191L): T1 sequence (P17050 with tags, fused parts or gaps S188E/A191L)

B1: α-NAGA mutant: mutant human α-N-acetylgalactosaminidase, serine 188 to glutamic acid and alanine 191 to leucine, having α-galactosidase activity (SEQ ID NO:8 used) (protein)
chain: T1 sequence (P17050 with tags, fused parts or gaps S188E/A191L)

How the values were obtained:
[1] = molecular target: T1, α-NAGA mutant (SEQ ID NO:8); assay: Screening of inhibitor (1): remaining enzyme activity of α-NAGA mutant with 4-methylumbelliferyl α-D-galactopyranoside; assay type: biochemical; details: 400 μM compound, pH 4.6, 37° C., 30 minutes
Protocol: The screening of inhibitor was carried out as follows: An inhibitor candidate compound dissolved in purified water or DMSO was added to 20 ng of an α-NAGA mutant (SEQ ID NO:8) and 4 mM 4-methylumbelliferylα-D-galactopyranoside dissolved in 0.1 M phosphate-citrate buffer (pH 4.6) such that a concentration of the inhibitor candidate compound became 0.8, 1, or 400 μM, and the mixture thus obtained was caused to react at 37° C. for 30 minutes (the total amount was 50 μl). After the reaction, 950 μl of 0.2 M glycine buffer (pH 10.7) was added to stop the reaction. Then, released 4-methylumbelliferone was measured at an excitation wavelength of 355 nm and at a fluorescence wavelength of 460 nm with use of Wallac 1420 ARVO MX Multilabel Counter. Remaining enzyme activity was calculated based on the assumption that an enzyme activity value obtained in a case where purified water or DMSO is added instead of the inhibitor candidate compound is 100%.

α-NAGA mutant [2] = molecular target: T2, α-NAGA mutant; assay: Screening of inhibitor (2): inhibition of enzyme activity of α-NAGA mutant; assay type: biochemical; details: 0.1, 1, or 10 μM compound, pH 4.6, 37° C., 30 minutes; FIG. 1
Protocol: The second screening was carried out as follows: DGJ, GBS, N-C-DGJ, N-DGJ, or N-HE-DGJ dissolved in purified water or DMSO was added to 25 ng of an α-NAGA mutant and 4 mM 4-methylumbelliferylα-D-galactopyranoside dissolved in 0.1 M phosphate-citrate buffer (pH 4.6) such that a concentration of DGJ, GBS, N-C-DGJ, N-DGJ, or N-HE-DGJ became 0.1, 1, or 10 μM, and the mixture thus obtained was caused to react at 37° C. for 30 minutes (the total amount was 50 μl). After the reaction was finished, 950 μl of 0.2 M glycine buffer (pH 10.7) was added to stop the reaction. Then, released 4-methylumbelliferone was measured at an excitation wavelength of 355 nm and at a fluorescence wavelength of 460 nm with use of Wallac 1420 ARVO MX Multilabel Counter. Remaining enzyme activity was calculated based on the assumption that an enzyme activity value obtained in a case where purified water or DMSO is added instead of the inhibitor candidate compound is 100%. FIG. 1 is a view illustrating inhibition of enzyme activity of an α-NAGA mutant by DGJ.

α-NAGA mutant [3] = molecular target: T2, α-NAGA mutant; assay: Calculation of inhibition constant Ki (Lineweaver-Burk plot); assay type: biochemical; details: substrate 1-8 mM; DGJ 100-400 nM, GBS 200-800 nM; pH 4.6; FIG. 2
Protocol: Enzymatic analysis was carried out by using, as a reaction liquid, 50 ng of an α-NAGA mutant and 0.1 M phosphate-citrate buffer (pH 4.6) in which a 4-methylumbelliferylα-D-galactopyranoside substrate was dissolved at any of concentrations (1, 2, 4, 6, and 8 mM) (the total amount was 50 μl). In measuring inhibitory activity, reaction was carried out with a reaction liquid which contained DGJ at a concentration of 100, 200, or 400 nM or GBS at a concentration of 200, 400, or 800 nM. After the reaction was carried out at 37° C. for 10 minutes, 950 μl of 0.2 M glycine buffer (pH 10.7) was added to stop the reaction. Then, released 4-methylumbelliferone was measured at an excitation wavelength of 355 nm and at a fluorescence wavelength of 460 nm with use of Wallac 1420 ARVO MX Multilabel Counter. From these values, a Lineweaver-Burk plot was prepared and an inhibition constant Ki was calculated from slopes in the plot which correspond to respective concentrations of the inhibitor.

[4] = tested on: Fabry disease model mouse; details: Fabry disease model mouse to which the α-NAGA mutant has been administered; cited from earlier work

| Molecule | inhibition effect on α-NAGA mutant (remaining enzyme activity) [1] | inhibition of enzyme activity of an α-NAGA mutant (remaining enzyme activity) (α-NAGA mutant [2]) | inhibition pattern from inhibition constant Ki (α-NAGA mutant [3]) | degradation of Gb3 and Lyso-Gb3 accumulated in organs [4] |
| --- | --- | --- | --- | --- |
| O=S(=O)(O)C1NC(CO)C(O)C(O)C1O (stereo not shown) [GBS, galactostatin bisulfite] | the inhibition effect was seen | had the effect of inhibiting activity of an α-NAGA mutant | inhibitory activity by competitive inhibition |  |
| B1 |  |  |  | Gb3 and Lyso-Gb3 which are accumulated in organs are degraded |

Source: US20200115698A1, “PHARMACEUTICAL COMBINATION FOR TREATMENT OF FABRY DISEASE AND USE THEREOF” (MEIJI PHARMACEUTICAL UNIVERSITY, priority 2017, published 2020)
